Laboratory results reported in patent US5602128A, “N-heterocycloalkyl carboxamides as serotonergic agents” (American Home Products Corporation, priority 1994, dated 1997).
pIC50: −log10 of the molar value.

Target: T1, 5-HT1A serotonin receptor (Rattus norvegicus, UniProt P19327)
T1 construct: following the procedure of Hall et al., J. Neurochem; 44, 1685(1985); from tissue
T1 sequence (P19327 1-422): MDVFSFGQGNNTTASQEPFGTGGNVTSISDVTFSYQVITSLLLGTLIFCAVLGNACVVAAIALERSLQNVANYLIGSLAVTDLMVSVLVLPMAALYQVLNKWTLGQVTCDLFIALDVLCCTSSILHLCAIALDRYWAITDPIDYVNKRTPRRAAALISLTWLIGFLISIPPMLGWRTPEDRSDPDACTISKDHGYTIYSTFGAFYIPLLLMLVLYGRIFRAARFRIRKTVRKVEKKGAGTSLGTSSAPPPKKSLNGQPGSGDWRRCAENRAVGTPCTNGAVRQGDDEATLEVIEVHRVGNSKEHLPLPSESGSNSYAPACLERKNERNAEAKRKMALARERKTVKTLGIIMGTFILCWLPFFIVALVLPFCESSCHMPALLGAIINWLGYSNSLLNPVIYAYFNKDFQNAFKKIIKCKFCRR
Test: displacement of [^3 H] 8-OHDPAT from the 5-HT1A serotonin receptor (procedure of Hall et al.)
Conditions: read-out: 5-HT1A Binding (IC50)
Description: High affinity for the serotonin 5-HT1A receptor was established by testing the claimed compound's ability to displace [^3 H] 8-OHDPAT (dipropylaminotetralin) from the 5-HT1A serotonin receptor following the procedure of Hall et al., J. Neurochem. 44, 1685(1985). […] The anxiolytic activity of buspirone is believed to be, at least partially, due to its 5-HT1A receptor affinity (Vander Maclen et al., Eur. J. Pharmacol. 1986, 129 (1-2) 133-130).
The result of the standard experimental test procedure described in the preceding paragraph was as follows when applied to the representative compound of this invention: […]

pIC50: 7.02
SMILES: COc1ccccc1N1CCN(CCC(C(=O)NCCN2CCOCC2)c2ccccc2)CC1 (stereo not shown) [Example 1, 4-[4-(2-Methoxy-phenyl)-piperazin-1-yl]-N-(2-morpholin-4-yl-ethyl)-2phenyl-butyramide]
